Assay results taken from patent US20250109140A1, “5-[5-(PIPERIDIN-4-YL)THIENO[3,2-C]PYRAZOL-2-YL]INDAZOLE DERIVATIVES AND RELATED COMPOUNDS AS MODULATORS FOR SPLICING NUCLEIC ACIDS AND FOR THE TREATMENT OF PROLIFERATIVE DISEASES” (REMIX THERAPUTICS INC., priority 2022, published 2025).
Read-outs that look alike come from different tables or passages of the source.

Tests used:
[1] = system: HTT mRNA; assay: Splicing RT-qPCR assay, HTT canonical (CJ) and alternative (AJ) junction mRNA; assay type: cell-based; conditions: Homo sapiens; for EC50: AC50 = 50% response in AJ mRNA increase
Method in brief: (§1)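 A673/K562; 11-pt 3-fold dil., top 10 uM final, ≤0.25% DMSO; 24 h, 37 °C, 5% CO2. Lysis, then RT-qPCR of CJ/AJ isoforms, ≥duplicate. ΔCt vs housekeeper (GAPDH/GUSB/PPIA), ΔΔCt vs DMSO, RQ = 2^(−ΔΔCt), expressed as % response.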

[2] = system: Target C mRNA; assay: Splicing RT-qPCR gene panel, Target C canonical junction (CJ) mRNA; assay type: cell-based; conditions: Homo sapiens; Table 8; larger gene panel, decrease in CJ mRNA levels
Method in brief: as §1

[3] = system: MYB mRNA; assay: Splicing RT-qPCR assay, MYB canonical (CJ) and alternative (AJ) junction mRNA; assay type: cell-based; conditions: Homo sapiens; for EC50: AC50 = 50% response in AJ mRNA increase
Method in brief: as §1

[4] = system: HiBiT-tagged MYB protein; assay: HiBiT protein abundance assay, MYB (K562 HiBiT knock-in cells); assay type: cell-based, human; conditions: 24 hours treatment
Method in brief: (§2)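 Luminescence from the Nano-Glo HiBiT lytic reagent measured tagged protein remaining in knock-in K562 cells after 24 h compound exposure (top dose 10 µM final, 3-fold, 10 points). Responses normalized between parental K562 and DMSO-treated lines were fit by four-parameter logistic to interpolate the 50% concentration.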

[5] = system: Target C; assay: HiBiT protein abundance assay, Target C (K562 HiBiT knock-in cells); assay type: cell-based, human; conditions: 24 hours treatment
Method in brief: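 The readout was Nano-Glo HiBiT lytic luminescence after 24 h compound exposure at 37 °C, in 10000 K562 knock-in cells/well. Compounds ran as 10-point, 3-fold series, top final […], ≤0.25% DMSO. Responses were scaled between parental K562 and DMSO-treated controls, and IC50 was interpolated at 50% from four-parameter logistic curves.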

[6] = system: HiBiT-tagged HTT protein; assay: HiBiT protein abundance assay, HTT (K562 HiBiT knock-in cells); assay type: cell-based, human; conditions: 24 hours treatment
Method in brief: as §2

[7] = system: SMN2 mRNA; assay: Splicing RT-qPCR gene panel, SMN2 canonical junction (CJ) mRNA; assay type: cell-based; conditions: Homo sapiens; Table 8; larger gene panel, decrease in CJ mRNA levels
Method in brief: as §1

[8] = system: K562 (human chronic myelogenous leukemia) cells; assay: Cell viability, Cell Titer Glo 2.0 assay, K562 cells; assay type: cell-based; conditions: 72 hours
Method in brief: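 Luminescent Cell Titer Glo 2.0 readout after 72 h exposure (37° C, 5% CO2), medium-only wells as blank. Cells plated 500/well in IMDM with 10% FBS; test compounds diluted from DMSO series 1:100 into medium, 0.1% DMSO final.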

[9] = Table 7, RT-qPCR, A673 or K562 cells, 24 hours treatment
[10] = Table 7, IC50 = 50% response in CJ mRNA decrease, RT-qPCR, A673 or K562 cells, 24 hours treatment, read-out: HTT CJ
[11] = Table 8, larger gene panel, decrease in CJ mRNA levels, read-out: HTT CJ IC50
[12] = Table 7, IC50 = 50% response in CJ mRNA decrease, RT-qPCR, A673 or K562 cells, 24 hours treatment, read-out: MYB CJ
[13] = Table 8, larger gene panel, decrease in CJ mRNA levels, read-out: MYB CJ IC50

Structure (SMILES) | EC50 [1, 9] [µM] | IC50 [1, 10] [µM] | IC50 [1, 11] [µM] | IC50 [2] [µM] | EC50 [3, 9] [µM] | IC50 [3, 12] [µM] | IC50 [3, 13] [µM] | IC50 [4] [µM] | IC50 [5] [µM] | IC50 [6] [µM] | IC50 [7] [µM] | IC50 [8] [µM]
Cc1cn2nc(-c3cc4cn(C5CCNCC5)nc4s3)cc2c(C)n1 [Compound 222] | 1 to 10 | 1 to 10 | 1 to 10 | 1 to 10 | 1 to 10 | 1 to 10 | 1 to 10 | 1 to 10 | 1 to 10 | 0.1 to 1 | < 0.1 | 1 to 10
Cc1cn2cc(-c3cc4cn(C5CCNCC5)nc4s3)ncc2n1 [Compound 223] | 1 to 10 | 1 to 10 | 1 to 10 | 1 to 10 | 1 to 10 | 1 to 10 | 1 to 10 | 1 to 10 | 1 to 10 | 1 to 10 | 0.1 to 1 | 1 to 10
COc1c(-c2cc3cn(C4CCNCC4)nc3s2)cc(F)c2nn(C)cc12 [Compound 224] | > 10 | > 10 | > 10 | > 10 | > 10 | > 10 | > 10 | > 10 | > 10 | > 10 | > 10 | > 10
Cc1cc(-c2cc3cn(C4CCNCC4)nc3s2)cc2cn(C)nc12 [Compound 225] | < 0.1 | < 0.1 | < 0.1 | 0.1 to 1 | 0.1 to 1 | 0.1 to 1 | 0.1 to 1 | 0.1 to 1 | < 0.1 | < 0.1 | < 0.1 | 0.1 to 1
Cc1cn2cc(-c3cc4cn(C5CCNCC5)nc4s3)cc(Cl)c2n1 [Compound 226] | < 0.1 | < 0.1 | < 0.1 | 0.1 to 1 | 0.1 to 1 | 0.1 to 1 | 0.1 to 1 | 0.1 to 1 | < 0.1 | < 0.1 | < 0.1 | 0.1 to 1
Cc1cn2cc(-n3cc4cc(C5CCNCC5)sc4n3)nc2c(C)n1 [Compound 227] | 1 to 10 | 0.1 to 1 | 0.1 to 1 | 1 to 10 | 1 to 10 | 1 to 10 | 1 to 10 | 1 to 10 | 1 to 10 | 0.1 to 1 | 0.1 to 1 | 1 to 10
Cc1cn2cc(-c3cc4cn(C5CCNCC5)nc4s3)nc(C)c2n1 [Compound 228] | 0.1 to 1 | 0.1 to 1 | 0.1 to 1 | 1 to 10 | 1 to 10 | 1 to 10 | 1 to 10 | 1 to 10 | 1 to 10 | 0.1 to 1 | 0.1 to 1 | 1 to 10
Cc1cn2cc(-c3cc4cn(C5CCNCC5)nc4s3)cc(F)c2n1 [Compound 229] | < 0.1 | < 0.1 | < 0.1 | 0.1 to 1 | 0.1 to 1 | 0.1 to 1 | 0.1 to 1 | 0.1 to 1 | < 0.1 | < 0.1 | < 0.1 | 0.1 to 1
Cn1cc2cc(-c3cc4cn([C@@H]5CCNC[C@H]5O)nc4s3)cc(F)c2n1 [Compound 273] | 1 to 10 | > 10 | > 10 | > 10 | 1 to 10 | > 10 | > 10 | > 10 | > 10 | 1 to 10 | 0.1 to 1 | 1 to 10
Cn1cc2cc(-c3nc4cn(C5CCNCC5)nc4s3)cc(F)c2n1 [Compound 1100, 7-fluoro-2-methyl-5-[2-(piperidin-4-yl)pyrazolo[4,3-d][1,3]thiazol-5-yl]indazole] | 0.1 to 1 | 0.1 to 1 | 0.1 to 1 | 0.1 to 1 | 0.1 to 1 | 0.1 to 1 | 0.1 to 1 | 0.1 to 1 | 0.1 to 1 | < 0.1 | < 0.1 | 1 to 10
Cc1cc(-c2nc3cn(C4CCNCC4)nc3s2)cc2cn(C)nc12 [Compound 1101] | 0.1 to 1 | < 0.1 | < 0.1 | 0.1 to 1 | 0.1 to 1 | 0.1 to 1 | 0.1 to 1 | 0.1 to 1 | < 0.1 | < 0.1 | < 0.1 | 0.1 to 1
COc1c(-c2nc3cn(C4CCNCC4)nc3s2)cc2cn(C)nc2c1C [Compound 1103] | 1 to 10 | 1 to 10 | 1 to 10 | 1 to 10 | 1 to 10 | 1 to 10 | 1 to 10 | 1 to 10 | 1 to 10 | 1 to 10 | 1 to 10 | 1 to 10
Cc1nc2cc(O)c(-c3nc4cn(C5CCNCC5)nc4s3)cc2o1 [Compound 1104] | 0.1 to 1 | 0.1 to 1 | 0.1 to 1 | 1 to 10 | 1 to 10 | 1 to 10 | 1 to 10 | 1 to 10 | 0.1 to 1 | < 0.1 | < 0.1 | 1 to 10
Cc1cn2cc(-c3nc4cn(C5CCNCC5)nc4s3)nc(C)c2n1 [Compound 1105, 4-(5-{2,8-dimethylimidazo[1,2-a]pyrazin-6-yl}pyrazolo[4,3-d][1,3]thiazol-2-yl)piperidine] | > 10 | > 10 | > 10 | > 10 | > 10 | > 10 | > 10 | 1 to 10 | > 10 | 1 to 10 | 1 to 10 | > 10
Cc1cc(-n2cc3nc(C4CCNCC4)sc3n2)cc2cn(C)nc12 [Compound 1106] | 1 to 10 | 1 to 10 | 1 to 10 | > 10 | 1 to 10 | > 10 | > 10 | 1 to 10 | 1 to 10 | 1 to 10 | 1 to 10 | > 10
Cn1cc2cc(-c3nc4cn(C5CCNCC5)nc4s3)c(O)c(F)c2n1 [Compound 1107] | 0.1 to 1 | 0.1 to 1 | 0.1 to 1 | 0.1 to 1 | 0.1 to 1 | 0.1 to 1 | 0.1 to 1 | 1 to 10 | 0.1 to 1 | 0.1 to 1 | < 0.1 | 1 to 10
Cc1c(O)c(-c2nc3cn(C4CCNCC4)nc3s2)cc2cn(C)nc12 [Compound 1108, 2,7-dimethyl-5-(2-(piperidin-4-yl)-2H-pyrazolo[4,3-d]thiazol-5-yl)-2H-indazol-6-ol] | < 0.1 | < 0.1 | < 0.1 | < 0.1 | < 0.1 | < 0.1 | < 0.1 | < 0.1 | 1 to 10 | 1 to 10 | < 0.1 | 0.1 to 1
Cn1cc2cc(-n3cc4nc(C5CCNCC5)sc4n3)cc(F)c2n1 [Compound 1109] | 1 to 10 | 1 to 10 | 1 to 10 | > 10 | 1 to 10 | > 10 | > 10 | 1 to 10 | 1 to 10 | 1 to 10 | 1 to 10 | > 10
Cn1cc2cc(-c3nc4cn(C5CCNCC5)nc4s3)c(O)cc2n1 [Compound 1110] | 0.1 to 1 | 0.1 to 1 | < 0.1 | 0.1 to 1 | 1 to 10 | 1 to 10 | 0.1 to 1 | 1 to 10 | 1 to 10 | 0.1 to 1 | < 0.1 | 1 to 10
